Assay results published in patent US12629419B2, “Prevention or mitigation of T-cell engaging agent-related adverse effects” (Hoffmann-La Roche Inc., priority 2020, dated 2026).
“Also recorded” adds a separate entry of the source.

Assays:
CD4+ and CD8+ T cells [1] = experiment: T cell activation (CD25, CD69 by flow cytometry) in CEA-TCB killing assay; format: cell-based; settings: 10 nM CEA-TCB; for T cell activation triggered by the TCB: summary statement, also for target cell killing; for CD25 and CD69 expression on CD4+ and CD8+ T cells (T cell activation): 66 h, fixed compound concentrations
WSU DLCL2 tumor cells [2] = experiment: killing assay with PBMCs, CTV labelled WSU DLCL2 tumor cells and CD20-TCB; format: cell-based; settings: 24 h; for CD20-TCB-mediated target cell killing: 1 nM CD20-TCB, inhibitor 0 nM to 1000 nM; for killing of B cells: WSU cells with PBMCs, CD20-TCB, fixed compound concentrations
Experimental: FIG. 13. In vitro killing assay set-up.
FIG. 14. […] At 24 hours, the tumor cells and PBMCs from technical replicates were pooled and stained with a LIVE/DEAD™ Near-IR dead cell dye to allow exclusion of dead CTV labelled WSU DLCL2 tumor cells by flow cytometry. Mean of n=3 donors+/−SEM.
A similar experiment was conducted with another TCB. WSU DLCL2 cells were co-cultured together with PBMCs in the presence of 1 nM CD20-TCB (SEQ ID NOs 4-11, 24-35), and escalating sirolimus doses ranging from 0 nM to 1000 nM (FIG. 13).
(§1) A similar experiment was conducted with another TCB. […] The killing of B cells was measured as a readout for the impact of the various compounds on TCB efficacy at 24 h (FIGS. 27 and 28). […] Lastly, the levels of cytokines (TNF-α, IFN-γ, IL-2, IL-6, IL-4, IL-10, GM-CSF and IL-1β) were analyzed by Luminex at assay endpoint to assess the impact of the different treatments on TCB-induced cytokine release (FIGS. 32 and 33).
(§2) At 24 hours, tumor cell killing was measured by flow cytometry by exclusion of dead CTV cells. The supernatants were collected and cytokines were measured by Luminex.

[3] = test system: CD20-TCB-induced cytokine release; experiment: CD20-TCB-induced cytokine release (Luminex); format: cell-based; settings: 24 h; for CD20-TCB-induced cytokine release: escalating CD20-TCB / 1 nM CD20-TCB, fixed compound concentrations
Experimental: A similar experiment was conducted with another TCB.
A similar experiment was conducted with CD20-TCB.
A similar experiment was conducted with CD20-TCB. WSU DLCL2 cells were co-cultured together with PBMCs in the presence of 1 nM CD20-TCB, and escalating everolimus doses ranging from 0 nM to 1000 nM (FIG. 13).
A similar experiment was conducted with CD20-TCB. WSU DLCL2 cells were co-cultured together with PBMCs in the presence of 1 nM CD20-TCB, and escalating ruxolitinib doses ranging from 0 nM to 1000 nM (FIG. 13).
as §1, §2

WSU DLCL2 tumor cells [4] = experiment: CD20-TCB killing assay, inhibitors added after 18 hours of activation: tumor cell killing; format: cell-based; settings: 100 nM added at 18 h
Experimental: (§3) FIG. 34. In vitro killing assay set-up. Cell Trace™ Violet (CTV) labelled WSU DLCL2 tumor cells were co-cultured together with PBMCs [E:T=200′000:20′000] and stimulated with CD20-TCB for 18 h.
(§4) In this assay, CTV labelled WSU DLCL2 tumors cells were co-cultured with PBMCs in the presence of escalating doses of CD20-TCB for 18 hours.

CD4+ and CD8+ T cells [5] = experiment: CD20-TCB killing assay, inhibitors added after 18 hours: T cell activation; format: cell-based; settings: 100 nM added at 18 h
Experimental: as §3, §4

[6] = test system: CD20-TCB-induced cytokine release; experiment: CD20-TCB killing assay, inhibitors added after 18 hours: cytokine release from pre-activated effector cells; format: cell-based; settings: 100 nM added at 18 h
Experimental: as §3, §4

[7] = test system: A375 NucLight Red (NLR) target-cells; experiment: killing assay with PBMCs, A375 NLR target cells and MAGEA4-TCB (Incucyte); format: cell-based; settings: 8 nM MAGEA4-TCB; escalating inhibitor concentrations
[8] = test system: MAGEA4-TCB-induced cytokine release; experiment: MAGEA4-TCB-induced cytokine release; format: cell-based; settings: 8 nM MAGEA4-TCB, 72 hours
Experimental: FIG. 45. Effect of escalating concentrations (c) of ruxolitinib on IFN-γ (A), IL-2 (B), TNF-α (C), GM-CSF (D), IL-6 (E), IL-1β (F), IL-8 (G), MCP-1 (H) and IL-10 (I) levels induced by 8 nM MAGEA4-TCB. At 72 hours, the supernatants were collected and cytokines were analyzed by cytometric bead array (CBA). Mean of technical replicates+/−SD for 1 representative donor.
FIG. 47. […] At 72 hours, the supernatants were collected and cytokines were analyzed by CBA. Mean of technical replicates+/−SD for 1 representative donor.
The effect of ruxolitinib on TCB-induced tumor cell killing and cytokine release was assessed using an additional TCB, the MAGEA4-TCB (SEQ ID NOs 37-56).

CD19+ B cells = experiment: CD20-TCB-induced B cell depletion in non-tumor bearing humanized NSG mice; format: in vivo; settings: 48 and 72 hours; 0.15 mg/kg CD20-TCB; p.o. 2, 5, 10 mg/kg sirolimus, 10 mg/kg everolimus, 10 mg/kg temsirolimus, ruxolitinib
Experimental: FIG. 95. In vivo experiment timelines and dosing schedule.
FIG. 96. […] The proportion of CD19+ B cells among human CD45+(huCD45) cells was measured by flow cytometry in the blood collected 48 hrs and 72 hrs post-treatment with CD20-TCB. Mean of n=4 mice or n=3 mice (everolimus group)+/−SEM. The statistical comparison to the vehicle group is summarized table (C) where the p values were calculated by Kruskal-Wallis test.
Different doses of mTOR, JAK and Src kinase inhibitors were tested to determine the optimal dose that reduces CD20-TCB-induced cytokine release while minimally interfering with B cell depletion. […] The doses of 30 and 60 mg/kg were tested for ruxolitinib and the doses of 10 and 50 mg/kg were tested for dasatinib. To reproduce the clinical route of administration, the different kinase inhibitors were given orally (p.o.) once or twice per day as depicted in FIG. 95. Mice were bled 4 hours and 24 hours after the treatment with CD20-TCB (FIG. 95) to collect serum for cytokine level measurements by Luminex. Additionally, blood was collected 48 hours and 72 hours (termination) post treatment with CD20-TCB to measure the percentage of CD19+ B cells among human CD45+ cells by flow cytometry (FIG. 95).

[9] = test system: CEA-TCB-induced cytokine release; experiment: CEA-TCB-induced cytokine release (Luminex, supernatants); settings: 10 nM CEA-TCB; for levels of IFN-γ, TNF-α, IL-2, IL-6, MCP-1, IL-8, IL-10, IL-4 and GM-CSF: assay endpoint 72 h (ruxolitinib 69 h), in comparison to samples without inhibitor; for CEA-TCB induced cytokine release: even at the lowest doses tested; for CEA-TCB-induced cytokine release: fixed compound concentrations
Experimental: The levels of cytokines were measured by Luminex in the supernatants of the assay to determine the impact of the different compounds on CEA-TCB-induced cytokine release.

[10] = 1 nM CD20-TCB, three donors, between 18 hours and 44 hours
[11] = measured at 44 hours, escalating CD20-TCB
[12] = 72 h, concentrations above 25 nM, reduced from ~45%

Row | SMILES | T cell activation triggered by the TCB (CD4+ and CD8+ T cells [1]) | CD25 and CD69 expression on CD4+ and CD8+ T cells (T cell activation) (CD4+ and CD8+ T cells [1]) | CD20-TCB-mediated target cell killing (WSU DLCL2 tumor cells [2]) | killing of B cells (WSU DLCL2 tumor cells [2]) | CD20-TCB-induced cytokine release [3] | CTV labelled WSU DLCL2 tumor cell killing (WSU DLCL2 tumor cells [4]; [10]) | CTV labelled WSU DLCL2 tumor cell killing (WSU DLCL2 tumor cells [4]; [11]) | T cell activation (CD4+ and CD8+ T cells [5]; [10]) | T cell activation (CD4+ and CD8+ T cells [5]; [11]) | MAGEA4-TCB induced tumor cell killing [7] | B cell depletion induced by CD20-TCB (percentage of CD19+ B cells among human CD45+ cells in peripheral blood) (CD19+ B cells) | levels of IFN-γ, TNF-α, IL-2, IL-6, MCP-1, IL-8, IL-10, IL-4 and GM-CSF [9] | CEA-TCB induced cytokine release [9] | CEA-TCB-induced cytokine release ([9]; 66 h) | further results
1 | N#CC[C@H](C1CCCC1)n1cc(-c2ncnc3[nH]ccc23)cn1 [ruxolitinib, Ruxolitinib] | does not fully inhibit | milder impact | did not fully inhibit | did neither prevent | comparable effect to dexamethasone and dasatinib | did not impact further | did not impact | did not impact further | did not impact | did not prevent | slightly interfered; also recorded: minimally interfered | very low | strongly downregulated; also recorded: strongly reduces | inhibited; also recorded: comparable to dexamethasone and dasatinib | expression of CD25 and CD69 on both CD4+ and CD8+ T cells (CD4+ and CD8+ T cells [1]; 69 h, escalating doses): dose-dependently influenced; release of TNF-α, IL-2 and GM-CSF ([3]; 1 nM CD20-TCB): did not have a strong effect; IL-6 and IFN-γ release induced by CD20-TCB ([3]; 1 nM CD20-TCB, concentrations above 25 nM): strongly reduced; IL-2 release ([6]; 1 nM CD20-TCB, three donors): did not prevent; further release of IFN-γ and IL-6 ([6]; 1 nM CD20-TCB, three donors): prevented further release; further production of IFN-γ, IL-6 ([6]; between 18 hours and 44 hours): prevented further production; further production of IL-2 ([6]; between 18 hours and 44 hours): did not prevent further production; levels of GM-CSF and IL-2 [8]: not impacted; levels of IFN-γ, TNF-α, IL-8, IL-6, MCP-1, IL-10 and IL-1β ([8]; with increasing concentrations): reduced; degree of inhibition of IFN-γ, TNF-α, GM-CSF, IL-6 and IL-8 levels ([9]; escalating concentrations, ruxolitinib vs. baricitinib): similar; IL-2 levels ([9]; 66 h, compared with the mTOR inhibitors): reduced IL-2 levels less strongly
2 | CO[C@H]1C[C@@H]2CC[C@@H](C)[C@@](O)(O2)C(=O)C(=O)N2CCCC[C@H]2C(=O)O[C@H]([C@H](C)C[C@@H]2CC[C@@H](OCCO)[C@H](OC)C2)CC(=O)[C@H](C)/C=C(\C)[C@@H](O)[C@@H](OC)C(=O)[C@H](C)C[C@H](C)/C=C/C=C/C=C/1C [everolimus, Everolimus] | does not fully inhibit | milder impact | did not fully inhibit | did neither prevent | comparable effect to dexamethasone and dasatinib | did not impact further | did not impact | did not impact further | did not impact | did not prevent | did not interfere; also recorded: minimally interfered | very low | strongly downregulated; also recorded: strongly reduces | inhibited; also recorded: comparable to dexamethasone and dasatinib | expression of CD69 on CD8+ T cells (CD4+ and CD8+ T cells [1]; 72 h): did not affect; expression of CD25 on CD4+ T cells (CD4+ and CD8+ T cells [1]; [12]): ~15%; expression of CD69 on CD4+ T cells (CD4+ and CD8+ T cells [1]; [12]): ~25%; expression of CD25 on CD8+ T cells (CD4+ and CD8+ T cells [1]; 72 h, concentrations above 25 nM, reduced from ~75% (everolimus: ~70%)): 40%; cytokine release induced by CD20-TCB (IFN-γ, IL-2, TNF-α, GM-CSF and IL-6) ([3]; 1 nM CD20-TCB, concentrations above 12.5 nM): strongly reduced; further release of IFN-γ, IL-2, IL-6 ([6]; 1 nM CD20-TCB, three donors): prevented further release; IL-2, IFN-γ, IL-6 and GM-CSF release ([6]; between 18 hours and 44 hours): stopped; release of TNF-α and IL-1β ([6]; between 18 hours and 44 hours): to a lower extent; levels of IFN-γ, IL-2, TNF-α, IL-8, IL-6, MCP-1 and IL-10 ([8]; with increasing concentrations): reduced
